# According to patent US20250262167A1, “COMPOUNDS, TARGETS AND PATHWAYS FOR MACROPHAGE MODULATION” (Massachusetts Institute of Technology, priority 2020, published 2025):
# Key:
# [1] = system: M0 macrophages (hMDMs); experiment: Dosage response of cell shape change on M0 macrophages; assay type: cell-based, human; conditions: M0 macrophages
# [2] = system: mouse bone marrow macrophages (BMMs); experiment: Development and function of TAM/M2-like macrophages in vitro (qPCR, flow cytometry); assay type: cell-based; conditions: mouse BMMs, induced by IL4/IL13, 24 hours
# Method: DEGs were identified by edgeR at P<0.05 with at least 2 fold-change. Data for genes that were not classified as differentially expressed are plotted in black. […] Mouse BMMs were cultured in normal medium with or without 2.5 μM thiostrepton for 24 hrs (group 1), or cultured in B16F10 tumor cell conditioned medium (CM) with or without 2.5 μM thiostrepton for 24 hrs (group 2), or cultured with B16F10 tumor cell CM for 24 hrs first and then treated with 2.5 μM thiostrepton for another 24 hrs (group 3). The transcript levels of the indicated genes were quantified by qPCR. Data were summarized from two independent experiments. […] Mouse BMMs were treated with thiostrepton for 24 hrs. Untreated and treated macrophages were co-cultured with equal number of B16F10 melanoma cells for 12 hrs. The number of tumor cells were quantified by flow cytometry after subtracting macrophages from total number of cells. Data were summarized from three independent experiments. ** P<0.01 by T-test.
# Expression of MHCII, CD80, iNOS, Arg1 and CD206 were quantified by flow cytometry. Shown are representative staining profiles of treated (red) and untreated (dark) TAMs from two independent experiments. […] Alternatively, mouse BMMs were polarized with IL-4/IL-13 (group 3) or lactic acid (group 5) for 24 hrs first and then either not treated or treated with […] thiostrepton for another 24 hrs. The transcript levels of the indicated genes were quantified by qPCR. Data are summarized from two independent experiments.
# Mouse BMMs were not treated or treated with […] thiostrepton for 24 hours in normal medium (group 1) or in the presence of IL4/IL13 (group 2), or mouse BMMs were polarized with IL4/IL13 for 24 hours and then either not treated or treated with […] thiostrepton for 24 hours (group 3). RNA was isolated and the transcript levels of the indicated genes were quantified by PCR. Data, shown as mean±s.d., were summarized from two independent experiments. * P<0.05 and ** P<0.01 by T-test. […] Data are shown as mean±s.e.m. FIGS. 19C-19D show flow cytometry analysis of TAM (F4/80^+CD11b^+Ly6C^−Ly6G^−), inflammatory monocytes (F4/80′^intCD11b^+Ly6C^+Ly6G^−) and monocytes (F4/80^−CD11b^+Ly6C^+Ly6G^+) in the tumors of mice treated with DMSO, TA99, cucurbitacin I, and cucurbitacin I plus TA99 18 days after tumor engraftment. Shown are representative F4/80 versus CD11b staining profiles gating on CD45+ cells and MHCII histograms gating on macrophages from c.
# Mouse bone marrow-derived macrophages (mBMM) were prepared as described previously^54. Briefly, fresh bone marrow cells were isolated from B6 mice. Cells were plated into 6-well plate with 1×10^6/mL in complete RPMI with 2-mercaptoethanol and cultured for 6 days with fresh medium change every 2 days. mBMMs were differentiated to resemble TAMs in the presence of 10 ng/mL mIL-4 and mIL-13 (Peprotech) or 25 mM lactate acid for 24 hrs or tumor conditioned medium (CM). To prepare CM, 70% confluent B16F10 cultured were replaced with fresh medium and the tumor medium was collected and filtered ([…]) 24 hrs later. The mixture of 3 volumes of tumor medium with 1 volume of complete RPMI for mBMM serves as the CM. Expression of Arg, Fizz1 and Vegfa were quantified by qPCR to assess the development of TAMs. Other genes of Tnf, Il1b, Nos2, Cxcl2, Ccl5, Ym1 and Tgfb serve as macrophage activating markers. To assay the tumor growth inhibition, mBMMs (10,000 cells per well in 96 well plate) were treated with thiostrepton for 24 hrs and then cocultured with equal number of B16 melanoma cells in fresh complete RPMI for 12 hrs. The conditioned medium treated or not treated with thiostrepton were collected and filtered. The numbers of B16 melanoma cells were cultured for 12 hrs with conditioned medium or conditioned medium heated at 95° C. for 5 min. Tumor cells were quantified by flow cytometry to determine the macrophage-dependent killing function. […]
# [3] = system: subcutaneous B16F10 tumors; experiment: B16F10 melanoma model in B6 mice; assay type: in vivo, mouse; conditions: i.p. 1 mg/kg
# [4] = system: hMDMs differentiated into M2 by IL-4 plus IL-13; experiment: Reprogramming screen and dosage response on M2-like differentiated macrophages;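 also: human monocyte-derived macrophages held 24 h in 5 ng/mL IL-4 plus IL-13 before 24 h compound exposure, with cell shape measured from images in 384-well plates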
# [5] = system: ImKCs (immortalized line of mouse Kupffer cells); experiment: Seahorse ECAR/OCR (glycolysis, OxPhos) in ImKCs; assay type: cell-based; conditions: ImKCs, S1P 3 mM, 24 hrs
# Method: Shown are representative data of three independent experiments. […] Data are presented as the mean±sd (n=4).
# FIGS. 21A-21I show DPI stimulates glycolysis through GPR3 and β-arrestin2. FIGS. 21A-21B show DPI-stimulated glycolysis is independent of the NOX activity. […] The mean fluorescence intensity (MFI) of 2-NBDG in cells was measured by flow cytometry and normalized to DMSO controls of wildtype BMDMs. Data are presented as the mean±sd (n=3). […] ImKCs were transfected with siRNA specific for Gpr3 or a scramble siRNA as control. […] Data are presented as the mean±sd (n=4). […] Data are presented as the mean±sd (n=12). […] Abbr2^−/− ImKC were constructed by CRISPR-Cas9-mediated gene editing. […] Data are presented as the mean±sd (n=4). […] ImKCs were transfected with Abbr2-GFP fusion gene and stimulated with DMSO, DPI (50 nM), or S1P (3 mM). The GFP signal was captured with a TIRF microscope at indicated time points. Shown are representative data of GFP signal at 0 min and 10 min, and merged signal from three independent experiments.
# Specific parameters for glycolytic capacity and glycolytic reserve were calculated and summarized based on two independent experiments. […] The GFP signal was captured with a TIRF microscope at indicated time points. Shown are representative data of GFP signal at 0 min and 10 min, and the merged signal from three independent experiments.
# OCR and ECAR were measured in isolated tissues or cultured ImKCs using the Seahorse XFe Extracellular Flux Analyzer (Agilent). For tissue respiration assays, 1.0 mg adipose tissue was dissected from inguinal WAT depots by using a surgical biopsy instrument (Integra Miltex Standard Biopsy Punches, Thermo Fisher) and placed into XF96 Islet Capture Microplates and pre-incubated with XF assay medium with pH value at 7.4. XF assay medium supplemented with 1 mM sodium pyruvate, 2 mM GlutaMax™-I, and 25 mM glucose. Isolated MDMs or Kupffer cells were subjected to a mitochondrial stress test by adding oligomycin (2 μM) followed by carbonyl cyanide 4-(trifluoromethoxy), phenylhydrazone (FCCP, 5 μM), and antimycin (1 μM). For glucose stress assay and ECAR measurement, XF assay medium was supplemented only with GlutaMax™-I. Tissue or cells were subjected to a glucose stress test by adding highly concentrated glucose (for tissue, 25 mM; for cells, 10 mM), followed by adding oligomycin (5 μM), FCCP (5 μM), and 2-DG (50 mM). Cells were seeded in culture dishes, and the medium was changed after 6 hours with serum-free DMEM. Cells were incubated for 12-16 hours, and the culture medium was then collected for measurement of glucose and lactate concentrations. Glucose levels were determined using a glucose (GO) assay kit (Sigma). Glucose consumption was the difference in glucose concentration when compared with DMEM. Lactate levels were determined using a lactate assay kit (Eton Bioscience).
# DPI is an agonist of GPR3 and an inhibitor of […] oxidase (NOX). We first determined the requirement of NOX in DPI-stimulated glycolysis.
# To determine the requirement of GPR3, we knocked down GPR3 by siRNA (siGpr3) in ImKCs.
# β-arrestin2, encoded by Arrb2, has been reported to bind to GPR3 and is required for GPR3 signaling. To investigate the requirement of 0-arrestin2 in DPI-stimulated glycolysis, we constructed Arrb2^−/− ImKCs using CRISPR-Cas9 mediated gene editing (FIG. 28F).
# [6] = system: human monocyte-derived macrophages (hMDMs); experiment: High throughput phenotypic screen of macrophage activation (cell shape, Z-score); assay type: cell-based; conditions: known M1-/M2-activating stimuli;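 also: phalloidin and DAPI stained hMDMs imaged by high-content microscopy, cell eccentricity compared with DMSO control by T-test, round morphology scored negative, elongated positive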
# [7] = system: hMDMs; experiment: Flow cytometry of M1 markers (CD80, CD86) and M2 markers (CD206, CD163) in hMDMs; assay type: cell-based, human; conditions: 24 hrs
# Method: FIGS. 7A-7B show morphology and phenotypes of activated macrophages. […] The resulting macrophages were polarized to M1 by IFNγ or M2 by IL4. Then, M1 macrophages were treated with M2-type compound bosutinib ([…]) for 24 hrs, and M2 macrophages were treated with M1-type compound thiostrepton ([…]) for 24 hrs. F-actin was stained and images were acquired by fluorescent microscopy with 60× objective. Cell nuclei are stained with DAPI. Representative data were shown from two independent experiments. […] Shown are the representative staining profiles from three independent experiments. The numbers show mean fluorescent intensity (MFI)+/−standard error of the mean (SEM) for n=3 samples per group.
# FIGS. 9A-9C show comparison of the differentially expressed genes induced by selected compounds (FIG. 9A), ligands for novel pathways (FIG. 9B), and controls (IL-4 and IFNγ). […] Shown are the changes of the relative mean fluorescence intensity (MFI) to controls. 0.2 refers to 20% MFI increase.
# B6 mice were purchased from the Jackson Laboratory and maintained in the animal facility at the Massachusetts Institute of Technology (MIT). NSG mice were purchased from the Jackson Laboratory and maintained under specific pathogen-free conditions in the animal facilities at MIT. […] The data were analyzed by FlowJo. […]
compound,measurement,setting,value
CC(C)(O)/C=C/C(=O)[C@](C)(O)[C@H]1[C@H](O)C[C@@]2(C)[C@@H]3CC=C4[C@@H](C=C(O)C(=O)C4(C)C)[C@]3(C)C(=O)C[C@]12C [Cucurbitacin I],Category,[1],M1 (−4 for M1-activated macrophages)
same,EC,"[1]; EC = concentration inducing cell morphology changes to reach the M1 or M2 Z-score cutoff, Michaelis-Menten fit, 3 independent experiments, unit of the source corrected",0.342 µM
same,Max absolute Z-value,"[1]; Max Z-score from Michaelis-Menten equation, negative = round, positive = elongated",−4.808
same,development and function of tumor-associated macrophages in vitro,[2],inhibits
same,B16F10 growth,[3],inhibited
same,EC,"[4]; M1-activating compounds on M2-like macrophages (IL-4 plus IL-13), EC = concentration reaching Z-score cutoff",1.759 µM
same,Category,[4]; differentiated macrophages,M1 (−4 for M1-activated macrophages)
"CCCCCCCCCCCCC/C=C/[C@@H](O)[C@@H](N)COP(=O)(O)O [S1P, sphingosine-1-phosphate]",glycolysis,[5],significant increase
IFNγ: classic M1 stimulus,cell shape induced,[6],round shape
same,expression of M1 markers CD80 and CD86,[7],up-regulated
same,expression of M2 markers CD206 and CD163,[7],suppressed
